According to patent US10369183B2, “Therapeutic compositions from jamaican bitter yam and methods of making and using same” (University of The West Indies, priority 2008, dated 2019):
Marks after values point to notes of the source that are not given here.

How the values were obtained:
Assay type in all cases: in vivo, Wistar rats
[1] = tested on: maltase; experiment: Intestinal maltase activity in diabetic rats; conditions: diabetic rats fed 1% of diet, mean ± SEM
Text: (§1) Experimental design for the animal studies: adult Wistar rats […] were divided into six groups (8 rats per group, average body weight 249.0±0.3 g) as follows: Group 1—healthy rats receiving normal diet (normal); Group 2—diabetic rats fed normal diet (diabetic); Group 3—diabetic rats fed sapogenin extract (as 1% of the diet); Group 4—diabetic rats fed diosgenin (as 1% of normal diet); Group 5—diabetic rats fed bitter yam (as 1% of diet); and Group 6 fed the bitter yam therapeutic product (BYTP—as 1% of the diet).
(§2) The rats except the control group were made diabetic using standard procedures involving streptozotocin (60 mg/kg body weight in 0.05 M citrate buffer, pH 4.5) injection intraperitonally. The control group rats were injected with an equivalent amount of buffer (0.05 M citrate buffer, pH 4.5). The normal rat diet (PMI Feeds Inc., Lab diet #5001) was a marketed laboratory rodent diet recommended for rats, mice and hamsters with the approximate chemical composition: protein 23%, fat 4.5%, fiber 6.0%, ash 8.0% and carbohydrate 58.5%. Rats were housed in stainless steel cages in a room kept on a 12-hour light-dark cycle, and were allowed to have access to their respective diets and water freely. The cages were cleaned daily. Body weight change, faecal output and total food intake were recorded weekly. The rats were fed on their respective diets for 4 weeks and sacrificed by decapitation after an overnight fast. Blood was collected in oxalate/fluoride vacutainers. The intestine, kidney, liver and spleen were excised, weighed and frozen in liquid nitrogen and stored at −20° C. until required for analysis. A section of the jejunum was cut and stored in 10% buffered formalin.

[2] = tested on: acid phosphatase; experiment: Acid phosphatase activity of liver, kidney and spleen in diabetic rats; conditions: diabetic rats fed 1% of diet, 4 weeks, mean ± SEM
Text: as §1, §2

[3] = tested on: glucose-6-phosphatase; experiment: Glucose-6-phosphatase activity in liver and kidneys of diabetic rats; conditions: diabetic rats fed 1% of diet, mean ± SEM
Text: as §1
as §2, with “The rats were fed on their respective diets for 4 weeks and sacrificed by decapitation after an overnight fast. Blood was collected in oxalate/fluoride vacutainers. The intestine, kidney, liver and spleen were excised, weighed and frozen in liquid nitrogen and stored at −20° C. until required for analysis. A section of the jejunum was cut and stored in 10% buffered formalin.” left out

[4] = tested on: Ca^2+ ATPase; experiment: Intestinal Ca2+ ATPase activity in diabetic rats; conditions: diabetic rats fed 1% of diet, mean ± SEM
Experimental: (§3) Group 1—healthy rats receiving normal diet (normal); Group 2—diabetic rats fed normal diet (diabetic); […] Group 4—diabetic rats fed diosgenin (as 1% of normal diet); Group 5—diabetic rats fed bitter yam (as 1% of diet); and Group 6 fed the bitter yam therapeutic product (BYTP—as 1% of the diet). The rats except the control group were made diabetic using standard procedures involving streptozotocin (60 mg/kg body weight in 0.05 M citrate buffer, pH 4.5) injection intraperitonally. The control group rats were injected with an equivalent amount of buffer (0.05 M citrate buffer, pH 4.5). […] Rats were housed in stainless steel cages in a room kept on a 12-hour light-dark cycle, and were allowed to have access to their respective diets and water freely. The cages were cleaned daily. Body weight change, faecal output and total food intake were recorded weekly. The rats were fed on their respective diets for 4 weeks and sacrificed by decapitation after an overnight fast. Blood was collected in oxalate/fluoride vacutainers. The intestine, kidney, liver and spleen were excised, weighed and frozen in liquid nitrogen and stored at −20° C. until required for analysis. A section of the jejunum was cut and stored in 10% buffered formalin. Na^+/K^+ and Ca^+ ATPase activities were measured by the amount of inorganic phosphate released following incubation with disodium ATP and cations for the appropriate ATPase (see Bonting et al., Sodium-potassium activated adenosinetriphosphatase and cation transport, in Membranes and Ion Transport I, Bittar (Ed.). Wiley-Interscience, N.Y., pp. 257-363 (1970); and Bonting et al., Archives of Biochemistry and Biophysics 101: 47-55 (1963)). The inorganic phosphate was determined by the method of Fiske and Subarow, Journal of Biological Chemistry 66: 375-400 (1925).

[5] = tested on: aspartate transaminase; experiment: Aspartate transaminase activity of liver, kidney and spleen in diabetic rats; conditions: diabetic rats fed 1% of diet, 4 weeks, mean ± SEM
Text: as §1, §2

[6] = tested on: diabetic rats; experiment: Lipid peroxidation (conjugated dienes, TBARS) in diabetic rats; conditions: diabetic rats fed 1% of diet, 4 weeks, mean ± SEM
Text: as §1, §2
Lipid peroxidation assays were conducted using the procedure of Tappel and Zalkin, Arch Biochim Biophys, 80: 333-336 (1959). Concentration of conjugated dienes in the liver was determined using the method of Hu et al., J Nutr, 119: 1574-1582 (1989).

[7] = tested on: Mg^2+ ATPase; experiment: Intestinal Mg2+ ATPase activity in diabetic rats; conditions: diabetic rats fed 1% of diet, mean ± SEM
[8] = tested on: Na^+/K^+ ATPase; experiment: Intestinal Na+/K+ ATPase activity in diabetic rats; conditions: diabetic rats fed 1% of diet, mean ± SEM
Experimental: as §3

[9] = tested on: alanine transaminase; experiment: Alanine transaminase activity of liver, kidney and spleen in diabetic rats; conditions: diabetic rats fed 1% of diet, 4 weeks, mean ± SEM
Text: as §1, §2

## C[C@@H]1CC[C@@]2(OC1)O[C@H]1C[C@H]3[C@@H]4CC=C5C[C@@H](O)CC[C@]5(C)[C@H]4CC[C@]3(C)[C@H]1[C@@H]2C [diosgenin]
[1]; Distal
  Specific activity of maltase from different sections of the rat intestine: 14.0 ± 1.0.^A nmol maltase/min/mg protein
[1]; Mid
  Specific activity of maltase from different sections of the rat intestine: 17.1 ± 0.9^a nmol maltase/min/mg protein
[1]; Upper
  Specific activity of maltase from different sections of the rat intestine: 18.4 ± 1.2^a nmol maltase/min/mg protein
[2]; kidney
  Acid phosphatase: 27.3 ± 1.1^a mg PNP/min/mg protein × 10^−5
[2]; liver
  Acid phosphatase: 17.3 ± 0.9^a mg PNP/min/mg protein × 10^−5
[2]; spleen
  Acid phosphatase: 9.0 ± 0.8^b mg PNP/min/mg protein × 10^−5
[3]; kidney
  glucose-6-phosphatase activity, Kidney: 11.0 ± 2.0^b μmole/min/mg protein × 10^−2
[3]; liver
  glucose-6-phosphatase activity, Liver: 8.3 ± 1.0^a μmole/min/mg protein × 10^−2
[4]; Distal
  Specific activity of Ca^2+ ATPase from rat intestinal sections: 13.1 ± 0.3^b nmol Pi/min/mg protein
[4]; Mid
  Specific activity of Ca^2+ ATPase from rat intestinal sections: 17.1 ± 0.4^c nmol Pi/min/mg protein
[4]; Proximal
  Specific activity of Ca^2+ ATPase from rat intestinal sections: 34.9 ± 0.6^a nmol Pi/min/mg protein
[5]; kidney
  Aspartate transaminase: 5.5 ± 0.6^bc mg pyr/min/mg protein × 10^−4
[5]; liver
  Aspartate transaminase: 8.6 ± 0.7^ab mg pyr/min/mg protein × 10^−4
[5]; spleen
  Aspartate transaminase: 7.1 ± 1.3^ab mg pyr/min/mg protein × 10^−4
[6]
  Kidney TBARS: 61.7 ± 6.6^a nmol/g kidney
  Liver TBARS: 18.1 ± 2.1^a nmol/g liver
[6]; liver
  Conjugated dienes: 0.428 ± 0.082^a μmole/g liver
[7]; Distal
  Specific activity of Mg^2+ ATPase from rat intestinal sections: 16.4 ± 0.6^a nmol Pi/min/mg protein
[7]; Mid
  Specific activity of Mg^2+ ATPase from rat intestinal sections: 22.1 ± 0.4^b nmol Pi/min/mg protein
[7]; Proximal
  Specific activity of Mg^2+ ATPase from rat intestinal sections: 27.8 ± 0.5^a nmol Pi/min/mg protein
[8]; Distal
  Specific activity of Na^+/K^+ ATPase from rat intestinal sections: 7.3 ± 0.1^c nmol Pi/min/mg protein
[8]; Mid
  Specific activity of Na^+/K^+ ATPase from rat intestinal sections: 9.5 ± 0.1^c nmol Pi/min/mg protein
[8]; Proximal
  Specific activity of Na^+/K^+ ATPase from rat intestinal sections: 12.8 ± 0.2^c nmol Pi/min/mg protein
[9]; kidney
  Alanine transaminase: 5.4 ± 0.5^a mg pyr/min/mg protein × 10^−4
[9]; liver
  Alanine transaminase: 14.1 ± 2.80^a mg pyr/min/mg protein × 10^−4
[9]; spleen
  Alanine transaminase: 10.7 ± 1.8^ab mg pyr/min/mg protein × 10^−4
